Measurements taken from patent publication US9518038B2, “Condensation product of theanine derivative and carboxylic acid coumarin derivative, its intermediate, preparation method and use thereof” (SHANDONG YINGDONG YINGHAO BIOTECHNOLOGY, INC., priority 2012, dated 2016).
Marks after values point to notes of the source that are not given here.

Experiments:
[1] = tested on: highly metastatic Lewis lung cancer cell lines; experiment: MTT growth inhibition, LLC cells; assay type: cell-based, mouse; details: Mus musculus, Lewis lung carcinoma, 72 h after treatment, read-out: Drug concentration (IC50) at which 50% cancer cells survived
EZH2 = target: T1, EZH2 (Homo sapiens, UniProt Q15910); experiment: EZH2 enzyme activity in protein extracts of human tumor xenografts of treated mice (EZH2 Assay Kit); assay type: in vivo; details: tumors excised 6 h after medication, SAHA 25 mg/kg
T1 construct: the EZH2 enzyme was replaced with tumor protein extracts in each group; from tissue; host or cells: human tumour xenografts excised from treated nude mice

Cyclin D1 = experiment: Western Blotting, Cyclin D1 level; assay type: cell-based; details: human liver cancer cells, Lewis lung cancer cells and other cancer cell lines and tumor tissues, read-out: Effective concentration (IC50) for inhibition of Cyclin D1
Excerpt: (§1) Antibodies: primary antibodies of VEGFR, EGFR, c-Met, K-Ras, H-Ras, Akt, NF-κB, Cyclin D1, ER-alpha, Dvl-1, Dvl-2, Dvl-3, MMP-9, MMP2, β-catenin, Bcl-2, Bax, p53, p21, E-cadherin and Caspase3 protein, purchased from American Cell Signaling Technology Company and Santa Cruz Technology Company; and H3 acetylation, H4 acetylation and HDAC (HDAC3, HDAC4 and the like) Antibody Sample Kits, purchased from Cell Signaling Technology Company of the U.S.
(§2) (3) polyacrylamide gel electrophoresis (SDS-PAGE): an equal amount of protein lysate sample was used to separate protein, film transfer, and blocking, treated with appropriate primary antibodies and secondary antibodies in sequence, and the film was washed, then the color was developed with ECL kit, and a blot protein band was detected by exposure of an X-ray film; and a Gel-Pro Analyzer was used for quantitative analysis of gray degree, optical density value of the control group and the drug treatment group in various concentration were respectively compared with that of internal reference, the obtained ratios were respectively compared with the control group, and the protein expression level was semi-quantified.

HDAC3 = HDAC3 enzyme activity in nuclear extracts of human tumor xenografts of treated mice; details: first value of the pair HDAC3 and HDAC4, SAHA 25 mg/kg
Experimental: For the detection of the effect of the drugs on enzyme activity of EZH2 and HDAC of in-vivo tumors, the tumors were separately excised after 6 h of medication, total proteins and nucleoproteins were extracted separately to detect and analyze the activity of the enzyme.
(2) 50 μl of diluted sample solution was added into each reaction well, the plate was sealed with a plate-sealing film and reacted at room temperature for 30 min;
(3) the plate-sealing film was carefully peeled off, the liquid was removed, dried, 150 μl of washing liquid was added into each well, stood for 30 s, then the liquid was removed, repeated twice, and dried;
(4) 2 μl of HDAC enzyme or tumor tissue nuclear extracts was respectively uniformly mixed with 28 μl of diluted sample solution, added into the wells, the plate was sealed with the plate-sealing film and reacted at 37° C. for 60 min;
(5) the plate was washed for three times, wherein the operation was the same as that in (3); and a diluted antibody capture working solution was added into each reaction well according to 50 μl/well and reacted on a shaking bed at room temperature for 60 min;
(6) the plate was washed for four times, wherein the operation was the same as that in (3);
(7) a diluted antibody detection working solution was added into each reaction well according to 50 μl/well and reacted at room temperature for 30 min;
(8) the plate was washed for five times, wherein the operation was the same as that in (3);
a color developing agent was added according to 100 μl/well, and performed dark development for 2-10 min;
(9) 50 μl of stop solution was added into each well for stopping the reaction when the color in the well with a standard product turned blue with medium intensity, the color immediately turned yellow from blue after the addition;
(10) the light absorbance (OD value) of each well was measured in sequence at the wavelength of 450 nm; wherein the measurement should be performed within 15 min after addition of the stop solution; and

Dvl-1 = experiment: Western Blotting, Dvl-1 level; assay type: cell-based; details: human liver cancer cells, Lewis lung cancer cells and other cancer cell lines and tumor tissues, read-out: Effective concentration (IC50) for inhibition of Dvl-1
Excerpt: as §1, §2

[2] = tested on: human brain tumor cells Daoy; experiment: MTT growth inhibition, Daoy cells; assay type: cell-based; details: Homo sapiens, 72 h after treatment, read-out: Drug concentration (IC50) at which 50% cancer cells survived
Caspase3 = experiment: Western Blotting, increase of Caspase3 level; assay type: cell-based; details: liver cancer cells, Lewis lung cancer cells and other cancer cell lines and tumor tissue protein lysates, 48 h treatment, read-out: Effective concentration to increase Caspase-3 by 50%
Excerpt: as §1, §2

[3] = Fluorescent imaging in vivo and in vitro; assay type: physicochemical; details: 60 mg/kg body weight/0.2 ml
Experimental: Fluorescent images and wavelength ranges of the compounds as obtained in embodiments 1-7 were determined according to the literature method (Chen Y, et al., 2-(3-{1-Carboxy-5-[(6-[18F]fluoro-pyridine-3-carbonyl)-amino]-pentyl}-ureido)-pentanedioic acid, [18F]DCFPyL, a PSMA-based PET imaging agent for prostate cancer. Clin Cancer Res, 2011, 17(24):7645-53), and the results were shown in Table 3 and FIG. 1.
2. Experimental procedure: For in-vitro fluorescent imaging and detection: the compounds Ia-Ih as obtained in embodiments 1-7 were prepared in 1.5 ml plastic centrifugal tubes into a solution with the concentration of 60 mg/0.2 ml, fluorescent signals and images were respectively detected and recorded with a multifunctional microplate reader and an animal in-vivo imaging instrument under the following excitation and emission wavelength conditions, and the obtained results were shown in Table 3 and FIG. 1 (small test tube photos); and for the detection of fluorescent images in-vivo: after 16 h of fasting treatment of the experimental animals (while drinking water was normally supplied), solutions of the compounds Ia-Ih as obtained in embodiments 1-7 were prepared according to a concentration of 60 mg/kg body weight/0.2 ml, and intraperitoneally administered to the animal, the fluorescent images were detected and recorded with the animal in-vivo imaging instrument under the following excitation and emission wavelength conditions, the obtained results were shown in FIG. 1 (animal in-vivo imaged photos); wherein, the experimental excitation wavelength range was 360 nm-590 nm; and the detection wavelength range was 410 nm-700 nm.

T1 sequence (Q15910 whole entry): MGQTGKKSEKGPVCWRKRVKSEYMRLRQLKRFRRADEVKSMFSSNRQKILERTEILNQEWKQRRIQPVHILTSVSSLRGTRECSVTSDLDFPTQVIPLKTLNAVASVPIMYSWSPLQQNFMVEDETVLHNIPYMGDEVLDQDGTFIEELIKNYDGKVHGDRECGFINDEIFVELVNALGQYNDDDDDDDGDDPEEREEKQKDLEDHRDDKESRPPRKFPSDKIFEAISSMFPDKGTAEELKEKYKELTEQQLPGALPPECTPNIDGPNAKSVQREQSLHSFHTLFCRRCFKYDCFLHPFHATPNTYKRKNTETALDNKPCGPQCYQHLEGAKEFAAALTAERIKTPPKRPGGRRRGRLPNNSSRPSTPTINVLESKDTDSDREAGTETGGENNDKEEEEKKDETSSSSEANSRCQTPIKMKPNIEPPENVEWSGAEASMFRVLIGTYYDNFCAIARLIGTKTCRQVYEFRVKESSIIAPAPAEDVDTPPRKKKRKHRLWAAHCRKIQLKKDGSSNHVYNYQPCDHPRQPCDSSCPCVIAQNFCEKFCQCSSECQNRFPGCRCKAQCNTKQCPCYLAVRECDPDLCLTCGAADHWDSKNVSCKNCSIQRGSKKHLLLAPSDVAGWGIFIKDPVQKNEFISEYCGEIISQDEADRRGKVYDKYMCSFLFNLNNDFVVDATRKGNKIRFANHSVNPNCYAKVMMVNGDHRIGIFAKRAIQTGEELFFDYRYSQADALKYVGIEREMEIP
T1 sequence (O75530 whole entry partner): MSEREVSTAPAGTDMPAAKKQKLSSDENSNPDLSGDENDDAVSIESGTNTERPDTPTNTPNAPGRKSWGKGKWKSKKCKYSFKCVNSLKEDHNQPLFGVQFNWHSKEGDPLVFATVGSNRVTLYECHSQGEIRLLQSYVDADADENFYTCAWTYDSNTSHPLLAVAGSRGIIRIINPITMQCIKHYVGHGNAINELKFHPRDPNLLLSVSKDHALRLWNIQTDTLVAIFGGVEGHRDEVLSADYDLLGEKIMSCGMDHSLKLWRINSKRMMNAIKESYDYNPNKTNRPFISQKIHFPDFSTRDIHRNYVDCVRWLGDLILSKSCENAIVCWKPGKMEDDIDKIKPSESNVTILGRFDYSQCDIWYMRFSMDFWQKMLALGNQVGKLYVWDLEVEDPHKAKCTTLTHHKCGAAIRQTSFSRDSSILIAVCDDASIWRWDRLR
T1 sequence (Q15022 whole entry partner): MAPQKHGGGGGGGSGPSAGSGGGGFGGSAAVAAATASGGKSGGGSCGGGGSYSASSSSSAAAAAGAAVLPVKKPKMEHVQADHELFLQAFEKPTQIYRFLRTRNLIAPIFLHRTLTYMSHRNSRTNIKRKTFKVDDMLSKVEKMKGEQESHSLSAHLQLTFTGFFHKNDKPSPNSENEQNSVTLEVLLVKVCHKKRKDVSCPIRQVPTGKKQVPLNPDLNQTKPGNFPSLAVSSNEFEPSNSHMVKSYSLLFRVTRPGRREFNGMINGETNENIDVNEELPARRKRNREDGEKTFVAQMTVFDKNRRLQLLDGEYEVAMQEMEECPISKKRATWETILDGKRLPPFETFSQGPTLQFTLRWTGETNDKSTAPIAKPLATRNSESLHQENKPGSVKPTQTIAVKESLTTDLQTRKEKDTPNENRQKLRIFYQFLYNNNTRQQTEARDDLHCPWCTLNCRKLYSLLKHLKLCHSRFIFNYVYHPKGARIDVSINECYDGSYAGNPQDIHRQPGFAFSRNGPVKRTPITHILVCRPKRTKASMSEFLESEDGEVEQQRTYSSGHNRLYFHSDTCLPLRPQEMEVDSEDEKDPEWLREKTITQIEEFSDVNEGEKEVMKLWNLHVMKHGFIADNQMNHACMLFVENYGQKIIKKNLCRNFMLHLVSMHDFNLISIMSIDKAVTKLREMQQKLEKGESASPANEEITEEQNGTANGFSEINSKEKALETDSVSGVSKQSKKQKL

Row | SMILES | IC50 [1] [µM] | decrease of EZH2 enzyme activity/inhibition rate (EZH2; A549 tumor grown in vivo) | decrease of EZH2 enzyme activity/inhibition rate (EZH2; MCF7 tumor grown in vivo) | decrease of EZH2 enzyme activity/inhibition rate (EZH2; MDA-MB231 tumor grown in vivo) | decrease of EZH2 enzyme activity/inhibition rate (EZH2; SMMC7721 tumor grown in vivo) | IC50 (Cyclin D1) [µM] | decrease of HDAC3 enzyme activity/inhibition rate (HDAC3; A549 tumor grown in vivo) [%* and] | decrease of HDAC3 enzyme activity/inhibition rate (HDAC3; MCF7 tumor grown in vivo) [%* and] | decrease of HDAC3 enzyme activity/inhibition rate (HDAC3; MDA-MB231 tumor grown in vivo) [%* and] | decrease of HDAC3 enzyme activity/inhibition rate (HDAC3; SMMC7721 tumor grown in vivo) [%* and] | IC50 (Dvl-1) [µM] | IC50 [2] [µM] | EC50 (Caspase3) [µM] | Emission (fluorescent wavelength range detectable in vivo and in vitro) [3] | Excitation (fluorescent wavelength range detectable in vivo and in vitro) [3]
1 | CCNC(=O)CC[C@@H](NC(=O)c1cc2cc(Br)cc(Br)c2oc1=O)C(=O)OCC [Compound Ih, (R)-2-(6,8-dibromo-2-oxo-2H-benzopyran-3-carboxamido)-5-ethylamino-5-oxo-pentanoic ethyl ester] | 53 | 55%*(A549)- | 61%*(MCF7) | 59%*(MDA-MB231) | 56%*(SMMC7721); | < 70 | 57 | 64 | 62 | 60 | < 250 | 121 | < 70 | 430-690 nm | 360-610 nm
2 | CCNC(=O)CC[C@@H](NC(=O)c1cc2cc(Cl)cc(Cl)c2oc1=O)C(=O)OCC [Compound Ig, (R)-2-(6,8-dichloro-2-oxo-2H-benzopyran-3-carboxamido)-5-ethylamino-5-oxo-pentanoic ethyl ester] | 36 | 57%*(A549)- | 65%*(MCF7) | 61%*(MDA-MB231) | 58%*(SMMC7721); | < 70 | 61 | 66 | 64 | 62 | < 125 | 110 | < 70 | 430-690 nm | 360-610 nm
